US20230053540A1, “TREATMENT OF LIVER INJURY” (Massachusetts Institute of Technology, priority 2019, published 2023)

Test system: hepatocytes
Test: Seq-Well scRNA-Seq of hepatocytes after APAP overdose (signature scores, DEG vs untreated)
Type: in vivo, mouse
[1] = A48 (48 h post-APAP) vs other clusters, Wilcox
[2] = A48 (APAP 48 h) vs untreated (UT) hepatocytes

## CC(=O)Nc1ccc(O)cc1 [APAP, acetaminophen]
A24 vs untreated (UT)
  avg_logFC Ssr3: 0.5218
  avg_logFC Stard4: 0.3515
  avg_logFC Steap4: 0.476
  avg_logFC Tmed7: 0.3868
  avg_logFC Tmem30a: 0.3328
  avg_logFC Tmem205: −0.4721
  avg_logFC Tram1: 0.4111
  avg_logFC Trp53inp1: 0.368
  avg_logFC Ubc: −0.3705
  avg_logFC Ugt2a3: −0.3334
  avg_logFC Ugt2b1: −0.2895
  avg_logFC Ugt2b5: −0.5765
  avg_logFC Ugt2b36: −0.3293
  avg_logFC Uqcrq: −0.5959
  avg_logFC Uso1: 0.3881
  avg_logFC Usp4: 0.3247
  avg_logFC Usp9x: 0.4076
  avg_logFC Zfp683: −0.4214
  avg_logFC mmu-mir-6236: 0.7875
  avg_logFC mt-Atp6: −0.5737
  avg_logFC mt-Co1: −1.433
  avg_logFC mt-Co2: −1.397
  avg_logFC mt-Co3: −1.167
  avg_logFC mt-Cytb: −1.571
  avg_logFC mt-Nd1: −1.42
  avg_logFC mt-Nd2: −1.242
  avg_logFC mt-Nd4: −1.957
  avg_logFC mt-Nd5: −1.384
  avg_logFC mt-Nd6: −0.4779
  avg_logFC mt-Rnr1: −0.4562
  avg_logFC mt-Rnr2: −0.7783
  avg_logFC mt-Tm: 0.2847
  avg_logFC mt-Tq: 0.2879
  avg_logFC n-R5-8s1: 1.253
[1]
  avg_logFC Abcb4: 0.4425
  avg_logFC Abcd2: 0.2813
  avg_logFC Abhd14b: 0.4059
  avg_logFC Acad11: 0.3851
  avg_logFC Agt: 0.5795
  avg_logFC Ahcy: 0.34
  avg_logFC Ahsg: 0.3592
  avg_logFC Aldh9a1: 0.3826
  avg_logFC Aldob: 0.4375
  avg_logFC Ambp: 0.286
  avg_logFC Amy1: 0.4216
  avg_logFC Angptl3: 0.6111
  avg_logFC Apoa5: 0.4484
  avg_logFC Apoc2: 0.8639
  avg_logFC Apoc3: 0.407
  avg_logFC Apoe: 0.5049
  avg_logFC Apoh: 0.4628
  avg_logFC Atp5b: 0.3281
  avg_logFC Atp5h: 0.5978
  avg_logFC Bfar: 0.308
  avg_logFC Bnip3: 0.462
  avg_logFC Cdo1: 0.3971
  avg_logFC Cebpb: 0.3684
  avg_logFC Ces1b: 0.4829
  avg_logFC Ces1c: 0.5488
  avg_logFC Chchd10: 0.7517
  avg_logFC Cox5a: 0.4197
  avg_logFC Cox8a: 0.552
  avg_logFC Cp: 0.4274
  avg_logFC Cyp4a10: 0.9326
  avg_logFC Cyp4a14: 1.281
  avg_logFC Dbp: 0.2896
  avg_logFC Ddb1: 0.3544
  avg_logFC Decr1: 0.5669
  avg_logFC Decr2: 0.4129
  avg_logFC Ech1: 0.418
  avg_logFC Echs1: 0.4649
  avg_logFC Ephx2: 0.3869
  avg_logFC F2: 0.3952
  avg_logFC F10: 0.3927
  avg_logFC F12: 0.388
  avg_logFC Fah: 0.3913
  avg_logFC Fcgrt: 0.4084
  avg_logFC Fkbp5: 0.2572
  avg_logFC Fth1: 0.375
  avg_logFC Gabarap: 0.4014
  avg_logFC Gc: 0.2979
  avg_logFC Gltscr2: 0.3432
  avg_logFC Gm6484: 0.4108
  avg_logFC Gm23935: 0.4738
  avg_logFC Grn: 0.431
  avg_logFC Gstt3: 0.3384
  avg_logFC Gys2: 0.4231
  avg_logFC Hdac11: 0.3557
  avg_logFC Herpud1: 0.6044
  avg_logFC Hmgcl: 0.5501
  avg_logFC Hmgcs2: 0.7687
  avg_logFC Hpx: 0.3851
  avg_logFC Hrg: 0.5316
  avg_logFC Hsd17b13: 0.6221
  avg_logFC Hspa8: 0.4107
  avg_logFC Khk: 0.5202
  avg_logFC Lcat: 0.5053
  avg_logFC Lims2: 0.3761
  avg_logFC Lpin1: 0.515
  avg_logFC Mat1a: 0.7753
  avg_logFC Mfsd2a: 0.6614
  avg_logFC Mlycd: 0.4378
  avg_logFC Ndrg2: 0.3482
  avg_logFC Nr1i3: 0.4759
  avg_logFC Oaf: 0.5021
  avg_logFC P4hb: 0.2981
  avg_logFC Pabpc1: 0.4782
  avg_logFC Plin5: 0.3985
  avg_logFC Pnpla2: 0.3465
  avg_logFC Prodh2: 0.5055
  avg_logFC Rbp4: 0.3942
  avg_logFC Rdh7: 0.4684
  avg_logFC Reep6: 0.6233
  avg_logFC Retsat: 0.7096
  avg_logFC Rgs16: 0.4545
  avg_logFC Rpl38: 0.3322
  avg_logFC Scand1: 0.2707
  avg_logFC Serpina3m: 0.4034
  avg_logFC Serpina1d: 0.3053
  avg_logFC Serping1: 0.5777
  avg_logFC Slc25a10: 0.4313
  avg_logFC Slc25a20: 0.3875
  avg_logFC Slc25a47: 0.6175
  avg_logFC Slc27a5: 0.4062
  avg_logFC Slc37a4: 0.4461
  avg_logFC Slco1a4: 0.5091
  avg_logFC Snord118: 0.4771
  avg_logFC St3gal5: 0.5549
  avg_logFC Sult1a1: 0.4827
  avg_logFC Syvn1: 0.3041
  avg_logFC Tcea3: 0.3938
  avg_logFC Tef: 0.3394
  avg_logFC Tmbim4: 0.3693
  avg_logFC Tmbim6: 0.3713
  avg_logFC Ttc36: 0.5638
  avg_logFC Ttpa: 0.4431
  avg_logFC Ttr: 0.4225
  avg_logFC Ugt2b5: 0.4388
  avg_logFC Vnn3: 0.3008
  avg_logFC Vtn: 0.5228
  avg_logFC Yipf3: 0.2785
A48 (APAP 48 h) hepatocytes
  Gstm3 pct.1: 0.279
  Pim3 pct.1: 0.845
[2]
  Gstm3 avg_logFC: −0.6277
  Pim3 avg_logFC: 0.2884
A48A96 vs untreated (UT)
  avg_logFC Acsl1: 0.2563
  avg_logFC Aldh3a2: 0.3079
  avg_logFC Atp1a1: 0.2628
  avg_logFC Atp5d: 0.2501
  avg_logFC C6: −0.267
  avg_logFC Ces1e: 0.2656
  avg_logFC Ctsd: 0.2579
  avg_logFC Cyp4a12a: −0.2771
  avg_logFC Ech1: 0.2505
  avg_logFC F5: 0.3006
  avg_logFC F9: 0.2568
  avg_logFC F12: 0.2567
  avg_logFC Fcgrt: 0.2585
  avg_logFC Fn1: 0.2925
  avg_logFC Ftl1: −0.2988
  avg_logFC Gabarapl1: 0.2607
  avg_logFC Gclm: 0.2588
  avg_logFC Glul: 0.3795
  avg_logFC Gm4076: −0.3083
  avg_logFC Gm20594: −0.3566
  avg_logFC Gsta2: 0.2522
  avg_logFC Hadha: 0.2509
  avg_logFC Hal: 0.2801
  avg_logFC Hgfac: 0.2522
  avg_logFC Hsd17b4: 0.2532
  avg_logFC Ifitm3: −0.2543
  avg_logFC Inmt: −0.2532
  avg_logFC Lpgat1: 0.2576
  avg_logFC Lpin1: 0.2775
  avg_logFC Ndufb2: 0.2516
  avg_logFC Park7: 0.2515
  avg_logFC Pck1: 0.2719
  avg_logFC Pipox: 0.2725
  avg_logFC Ppp2r5a: 0.2509
  avg_logFC Ptms: 0.2678
  avg_logFC Rarres1: −0.2919
  avg_logFC Rpl32: −0.2847
  avg_logFC Rpl41: −0.295
  avg_logFC Sardh: 0.2692
  avg_logFC Sdhd: 0.3208
  avg_logFC Sds: 0.2973
  avg_logFC Sec61a1: 0.2637
  avg_logFC Serpina12: −0.3247
  avg_logFC Sfxn1: 0.3049
  avg_logFC Slc2a2: 0.2723
  avg_logFC Slc37a4: 0.2683
  avg_logFC Tmem106b: 0.2704
  avg_logFC Ubb: −0.2644
  avg_logFC Ubxn4: 0.2503
  avg_logFC Upb1: 0.2504
  avg_logFC Usmg5: 0.2787
  avg_logFC mmu-mir-6236: −0.4297
  avg_logFC mt-Atp6: −0.3234
A48 vs UT
  C6 A48logFC: −0.267
  Glul A48logFC: 0.3795
  Gm20594 A48logFC: −0.3566
  Rps8 A48logFC: −0.2746
